In paper PMC8429728, “TNK1 is a ubiquitin-binding and 14-3-3-regulated kinase that can be targeted to block tumor growth” (Nature Communications, 2021):
Where two headings read alike, the source gives them in different places.

What was measured:
Experiment in all cases: biochemical
Design in all cases: Reaction Biology 371-kinase panel at Km ATP, per cent enzyme activity relative to DMSO, single dose in duplicate
[1] = target: ALK (Homo sapiens, UniProt Q9UM73); conditions: duplicate measurements, Km ATP
Procedure, shortened: (§1)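 First, kinases from a 371-member panel were exposed in vitro to 300 nM inhibitor. Next, % enzyme activity versus DMSO was computed. Finally, IC50s were derived by sigmoidal dose-response fitting with variable slope and a zero bottom constraint.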

[2] = target: ALK4/ACVR1B (Homo sapiens, UniProt P36896); conditions: duplicate measurements, Km ATP
Procedure, shortened: as §1

[3] = target: CDK14/cyclin Y (PFTK1) (Homo sapiens, UniProt O94921); conditions: duplicate measurements, Km ATP
Procedure, shortened: as §1

[4] = target: CDK2/cyclin E2 (Homo sapiens, UniProt P24941); conditions: duplicate measurements, Km ATP
Procedure, shortened: as §1

[5] = target: T1, CK1epsilon (Homo sapiens, UniProt P49674); conditions: duplicate measurements, Km ATP
T1 construct: gene CSNK1E
Procedure, shortened: as §1

[6] = target: T2, DCAMKL2 (Homo sapiens, UniProt Q8N568); conditions: duplicate measurements, Km ATP
T2 construct: gene DCLK2
Procedure, shortened: as §1

[7] = target: FGFR2 (Homo sapiens, UniProt P21802); conditions: duplicate measurements, Km ATP
Procedure, shortened: as §1

[8] = target: GCK/MAP4K2 (Homo sapiens, UniProt Q12851); conditions: duplicate measurements, Km ATP
Procedure, shortened: as §1

[9] = target: IRAK1 (Homo sapiens, UniProt P51617); conditions: duplicate measurements, Km ATP
Procedure, shortened: as §1

[10] = target: MARK3 (Homo sapiens, UniProt P27448); conditions: duplicate measurements, Km ATP
Procedure, shortened: as §1

[11] = target: T3, MEKK6 (Homo sapiens, UniProt O95382); conditions: duplicate measurements, Km ATP
T3 construct: gene MAP3K6
Procedure, shortened: as §1

[12] = target: MYO3A (Homo sapiens, UniProt Q8NEV4); conditions: duplicate measurements, Km ATP
Procedure, shortened: as §1

[13] = target: T4, PKCa (Homo sapiens, UniProt P17252); conditions: duplicate measurements, Km ATP
T4 construct: gene PRKCA
Procedure, shortened: as §1

[14] = target: STK32C/YANK3 (Homo sapiens, UniProt Q86UX6); conditions: duplicate measurements, Km ATP
Procedure, shortened: as §1

[15] = target: SYK (Homo sapiens, UniProt P43405); conditions: duplicate measurements, Km ATP
Procedure, shortened: as §1

[16] = target: T5, TAK1 (Homo sapiens, UniProt O43318); conditions: duplicate measurements, Km ATP
T5 construct: gene MAP3K7
Procedure, shortened: as §1

[17] = target: TYK1/LTK (Homo sapiens, UniProt P29376); conditions: duplicate measurements, Km ATP; read-out: % Enzyme Activity (relative to DMSO controls) / TP-0005801 (0.3µM) / Data 1
Procedure, shortened: as §1

[18] = target: WNK1 (Homo sapiens, UniProt Q9H4A3); conditions: duplicate measurements, Km ATP
Procedure, shortened: as §1

[19] = target: c-MET (Homo sapiens, UniProt P08581); conditions: duplicate measurements, Km ATP
Procedure, shortened: as §1

[20] = target: c-Src (Homo sapiens, UniProt P12931); conditions: duplicate measurements, Km ATP
Procedure, shortened: as §1

[21] = read-out: % Enzyme Activity (relative to DMSO controls) / TP-0005801 (0.3µM) / Data 1
[22] = read-out: % Enzyme Activity (relative to DMSO controls) / TP-0005801 (0.3µM) / Data 2

WNK1, sequence (Q9H4A3 whole entry): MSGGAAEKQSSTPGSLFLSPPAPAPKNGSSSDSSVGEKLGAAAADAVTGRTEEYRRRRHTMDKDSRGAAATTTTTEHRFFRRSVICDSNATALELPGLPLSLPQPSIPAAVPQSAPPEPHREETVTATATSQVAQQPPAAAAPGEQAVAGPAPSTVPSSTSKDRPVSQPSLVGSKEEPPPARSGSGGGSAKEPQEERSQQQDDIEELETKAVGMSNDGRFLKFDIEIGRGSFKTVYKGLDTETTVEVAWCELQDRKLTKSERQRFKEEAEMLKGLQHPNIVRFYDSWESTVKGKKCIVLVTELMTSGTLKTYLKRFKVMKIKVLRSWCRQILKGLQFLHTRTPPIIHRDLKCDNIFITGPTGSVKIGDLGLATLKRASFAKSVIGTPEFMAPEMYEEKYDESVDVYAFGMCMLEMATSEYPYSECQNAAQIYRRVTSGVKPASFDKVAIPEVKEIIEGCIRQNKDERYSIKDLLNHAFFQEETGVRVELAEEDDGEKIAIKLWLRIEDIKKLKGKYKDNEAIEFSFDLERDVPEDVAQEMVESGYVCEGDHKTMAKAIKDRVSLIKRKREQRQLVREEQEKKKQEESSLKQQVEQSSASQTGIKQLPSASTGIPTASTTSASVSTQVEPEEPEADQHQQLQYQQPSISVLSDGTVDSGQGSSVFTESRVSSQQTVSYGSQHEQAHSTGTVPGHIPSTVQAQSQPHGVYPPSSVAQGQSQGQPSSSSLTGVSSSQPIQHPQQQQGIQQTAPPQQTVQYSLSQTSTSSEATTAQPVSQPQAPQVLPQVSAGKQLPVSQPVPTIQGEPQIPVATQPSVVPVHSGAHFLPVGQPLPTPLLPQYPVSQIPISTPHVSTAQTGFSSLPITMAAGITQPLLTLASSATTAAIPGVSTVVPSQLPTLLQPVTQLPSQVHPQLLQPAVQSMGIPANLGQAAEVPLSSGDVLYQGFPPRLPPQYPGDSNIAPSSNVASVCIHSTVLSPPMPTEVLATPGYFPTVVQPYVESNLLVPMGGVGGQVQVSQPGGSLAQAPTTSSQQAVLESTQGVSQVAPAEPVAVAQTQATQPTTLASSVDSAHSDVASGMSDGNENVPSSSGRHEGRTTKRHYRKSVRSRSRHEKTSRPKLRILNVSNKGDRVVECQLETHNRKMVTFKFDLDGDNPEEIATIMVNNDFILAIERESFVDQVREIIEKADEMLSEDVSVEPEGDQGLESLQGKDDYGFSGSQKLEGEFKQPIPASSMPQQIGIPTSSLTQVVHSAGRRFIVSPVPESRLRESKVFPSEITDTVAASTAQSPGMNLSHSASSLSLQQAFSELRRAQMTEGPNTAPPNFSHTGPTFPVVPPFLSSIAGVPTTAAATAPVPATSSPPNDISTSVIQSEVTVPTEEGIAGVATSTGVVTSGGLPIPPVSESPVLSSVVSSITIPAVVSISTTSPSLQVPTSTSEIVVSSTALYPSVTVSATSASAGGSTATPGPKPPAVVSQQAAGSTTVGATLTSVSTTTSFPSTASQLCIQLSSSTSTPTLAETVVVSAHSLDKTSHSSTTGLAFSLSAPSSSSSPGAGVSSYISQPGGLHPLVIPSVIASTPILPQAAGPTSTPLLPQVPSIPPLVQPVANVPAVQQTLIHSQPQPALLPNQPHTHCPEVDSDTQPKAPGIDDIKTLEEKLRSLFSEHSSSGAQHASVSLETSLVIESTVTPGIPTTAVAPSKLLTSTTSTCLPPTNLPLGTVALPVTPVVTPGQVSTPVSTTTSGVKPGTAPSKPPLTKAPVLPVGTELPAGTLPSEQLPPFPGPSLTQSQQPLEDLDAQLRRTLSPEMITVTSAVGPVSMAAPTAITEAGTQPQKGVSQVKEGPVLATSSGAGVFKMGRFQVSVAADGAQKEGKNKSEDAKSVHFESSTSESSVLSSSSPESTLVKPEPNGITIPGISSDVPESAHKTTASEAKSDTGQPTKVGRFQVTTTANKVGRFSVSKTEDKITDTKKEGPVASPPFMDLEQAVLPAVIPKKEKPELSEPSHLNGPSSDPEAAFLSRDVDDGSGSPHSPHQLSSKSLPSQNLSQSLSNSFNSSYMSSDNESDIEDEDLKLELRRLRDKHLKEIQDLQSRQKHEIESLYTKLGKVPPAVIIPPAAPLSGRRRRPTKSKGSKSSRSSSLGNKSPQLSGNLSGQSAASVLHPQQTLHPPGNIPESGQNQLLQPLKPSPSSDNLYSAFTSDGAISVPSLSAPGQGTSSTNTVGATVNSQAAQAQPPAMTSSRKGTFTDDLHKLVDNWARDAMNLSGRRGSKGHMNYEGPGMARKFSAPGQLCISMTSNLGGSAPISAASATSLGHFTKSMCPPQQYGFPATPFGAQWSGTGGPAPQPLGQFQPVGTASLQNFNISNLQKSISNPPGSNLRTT
c-Src, sequence (P12931 whole entry): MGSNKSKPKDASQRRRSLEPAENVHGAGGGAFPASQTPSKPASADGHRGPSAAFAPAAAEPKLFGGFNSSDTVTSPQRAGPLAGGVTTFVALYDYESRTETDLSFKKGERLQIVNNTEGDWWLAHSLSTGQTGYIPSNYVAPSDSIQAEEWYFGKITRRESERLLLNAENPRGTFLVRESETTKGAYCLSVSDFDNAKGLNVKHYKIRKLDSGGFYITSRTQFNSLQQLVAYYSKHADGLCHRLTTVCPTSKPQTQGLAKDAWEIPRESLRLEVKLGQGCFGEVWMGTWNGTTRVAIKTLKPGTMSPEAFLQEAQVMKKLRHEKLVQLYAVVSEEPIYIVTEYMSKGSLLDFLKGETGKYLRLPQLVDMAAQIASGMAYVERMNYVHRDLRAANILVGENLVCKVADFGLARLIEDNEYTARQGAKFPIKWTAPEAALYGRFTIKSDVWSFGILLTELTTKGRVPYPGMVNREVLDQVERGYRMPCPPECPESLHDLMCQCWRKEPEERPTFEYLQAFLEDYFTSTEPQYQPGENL
MYO3A, sequence (Q8NEV4 whole entry): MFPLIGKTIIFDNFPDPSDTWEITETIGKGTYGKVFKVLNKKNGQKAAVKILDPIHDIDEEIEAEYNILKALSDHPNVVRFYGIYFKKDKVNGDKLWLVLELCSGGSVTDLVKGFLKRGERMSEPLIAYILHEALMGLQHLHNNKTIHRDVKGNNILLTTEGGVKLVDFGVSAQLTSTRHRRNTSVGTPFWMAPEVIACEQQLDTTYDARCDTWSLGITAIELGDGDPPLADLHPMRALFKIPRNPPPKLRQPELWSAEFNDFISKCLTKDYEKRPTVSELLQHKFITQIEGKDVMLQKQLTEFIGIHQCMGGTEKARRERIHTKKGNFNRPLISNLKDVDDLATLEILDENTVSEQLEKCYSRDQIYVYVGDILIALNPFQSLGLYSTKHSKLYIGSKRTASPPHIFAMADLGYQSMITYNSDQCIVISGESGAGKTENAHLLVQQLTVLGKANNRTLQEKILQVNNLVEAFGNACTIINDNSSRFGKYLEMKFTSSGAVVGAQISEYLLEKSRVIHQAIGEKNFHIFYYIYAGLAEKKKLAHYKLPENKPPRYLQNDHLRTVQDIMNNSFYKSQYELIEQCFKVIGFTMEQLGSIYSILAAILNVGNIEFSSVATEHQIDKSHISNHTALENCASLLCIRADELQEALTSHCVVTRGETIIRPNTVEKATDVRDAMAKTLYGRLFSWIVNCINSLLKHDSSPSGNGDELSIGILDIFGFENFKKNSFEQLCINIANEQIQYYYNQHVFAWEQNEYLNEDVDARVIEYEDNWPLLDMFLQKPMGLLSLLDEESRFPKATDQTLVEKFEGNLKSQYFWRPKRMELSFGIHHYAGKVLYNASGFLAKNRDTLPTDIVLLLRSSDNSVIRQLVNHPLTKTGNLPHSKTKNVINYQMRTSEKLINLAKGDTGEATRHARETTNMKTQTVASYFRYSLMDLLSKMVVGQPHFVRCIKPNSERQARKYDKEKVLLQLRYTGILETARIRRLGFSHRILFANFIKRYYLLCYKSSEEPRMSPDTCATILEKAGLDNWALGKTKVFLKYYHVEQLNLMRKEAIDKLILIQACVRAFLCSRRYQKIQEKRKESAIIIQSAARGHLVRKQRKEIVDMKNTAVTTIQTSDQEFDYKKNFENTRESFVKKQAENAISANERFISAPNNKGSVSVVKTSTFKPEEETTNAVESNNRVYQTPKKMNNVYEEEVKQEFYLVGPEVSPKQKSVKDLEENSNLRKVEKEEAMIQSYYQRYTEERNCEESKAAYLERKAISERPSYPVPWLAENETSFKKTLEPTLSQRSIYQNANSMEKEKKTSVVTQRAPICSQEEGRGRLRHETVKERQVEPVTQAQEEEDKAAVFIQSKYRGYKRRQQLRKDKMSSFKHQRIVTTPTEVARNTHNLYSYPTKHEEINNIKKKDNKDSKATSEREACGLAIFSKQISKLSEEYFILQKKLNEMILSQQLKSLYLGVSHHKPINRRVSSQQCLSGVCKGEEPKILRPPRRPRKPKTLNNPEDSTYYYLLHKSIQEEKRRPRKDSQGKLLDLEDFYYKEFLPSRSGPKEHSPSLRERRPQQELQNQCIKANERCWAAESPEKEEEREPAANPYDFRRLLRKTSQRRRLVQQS
STK32C/YANK3, sequence (Q86UX6 whole entry): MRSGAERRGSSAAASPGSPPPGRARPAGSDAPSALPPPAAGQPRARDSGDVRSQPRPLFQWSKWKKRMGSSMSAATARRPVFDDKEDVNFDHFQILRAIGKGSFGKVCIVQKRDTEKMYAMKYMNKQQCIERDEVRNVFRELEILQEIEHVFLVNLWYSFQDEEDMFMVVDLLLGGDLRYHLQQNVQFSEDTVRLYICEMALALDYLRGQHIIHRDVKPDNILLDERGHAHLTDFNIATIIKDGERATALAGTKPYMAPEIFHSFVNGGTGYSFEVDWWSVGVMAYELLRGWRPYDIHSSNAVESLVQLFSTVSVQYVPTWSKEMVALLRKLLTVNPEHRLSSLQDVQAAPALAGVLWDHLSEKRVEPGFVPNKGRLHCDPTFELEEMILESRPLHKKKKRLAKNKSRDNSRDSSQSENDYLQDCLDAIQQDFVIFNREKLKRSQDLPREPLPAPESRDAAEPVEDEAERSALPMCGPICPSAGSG

remaining activity at 0.3 µM [1, 21]: 3.64%
remaining activity at 0.3 µM [1, 22]: 3.52%
remaining activity at 0.3 µM [2, 21]: 86.9%
remaining activity at 0.3 µM [2, 22]: 85%
remaining activity at 0.3 µM [3, 21]: 91.8%
remaining activity at 0.3 µM [3, 22]: 90.2%
remaining activity at 0.3 µM [4, 21]: 102%
remaining activity at 0.3 µM [4, 22]: 101%
remaining activity at 0.3 µM [5, 21]: 96.5%
remaining activity at 0.3 µM [5, 22]: 94.7%
remaining activity at 0.3 µM [6, 21]: 93.7%
remaining activity at 0.3 µM [6, 22]: 89.7%
remaining activity at 0.3 µM [7, 21]: 89.2%
remaining activity at 0.3 µM [7, 22]: 87.3%
remaining activity at 0.3 µM [8, 21]: 76.1%
remaining activity at 0.3 µM [8, 22]: 73.9%
remaining activity at 0.3 µM [9, 21]: 87.2%
remaining activity at 0.3 µM [9, 22]: 83.4%
remaining activity at 0.3 µM [10, 21]: 95.4%
remaining activity at 0.3 µM [10, 22]: 91.7%
remaining activity at 0.3 µM [11, 21]: 95.3%
remaining activity at 0.3 µM [11, 22]: 95.2%
remaining activity at 0.3 µM [12, 21]: 69.8%
remaining activity at 0.3 µM [12, 22]: 66.3%
remaining activity at 0.3 µM [13, 21]: 98.6%
remaining activity at 0.3 µM [13, 22]: 98%
remaining activity at 0.3 µM [14, 21]: 90.2%
remaining activity at 0.3 µM [14, 22]: 83.2%
remaining activity at 0.3 µM [15, 21]: 77.6%
remaining activity at 0.3 µM [15, 22]: 77.5%
remaining activity at 0.3 µM [16, 21]: 103%
remaining activity at 0.3 µM [16, 22]: 102%
remaining activity at 0.3 µM [17]: 16.4%
remaining activity at 0.3 µM [18, 21]: 108%
remaining activity at 0.3 µM [18, 22]: 104%
remaining activity at 0.3 µM [19, 21]: 104%
remaining activity at 0.3 µM [19, 22]: 102%
remaining activity at 0.3 µM [20, 21]: 107%
remaining activity at 0.3 µM [20, 22]: 106%
SMILES: COc1cc(N2CCN(C)CC2)c(C)cc1Nc1ncc(Br)c(Nc2cccnc2N(C)C)n1 [TP-5801]
